Data set [1] relates to HCC827 cells. The following applies: ref Zhao et al., 2022; cited from earlier work.
In data set [2] the test system is EGFR^Del19. The following applies: HCC827 cells; ref Zhao et al., 2022; cited from earlier work.
Data set [3] deals with HCC827 cells. As to the kind of experiment: Cell viability (CCK-8) in HCC827 cells. It is filed as cell-based, human. The following applies: for IC50: Homo sapiens, CCK-8. How it is done: (§1) The viability of cells was determined using Cell Counting Kit-8 (CCK-8; Dojindo), and IC50 was calculated using GraphPad Prism (version 6.0). For colony formation assays, cells (1 × 10^3 cells/well) seeded in 24-well plates were treated with different concentrations of compounds and replaced with fresh media with compounds every 4 days. After 7 days, the cells were washed with PBS, fixed with methanol, and stained with 0.1% crystal violet solution.

The subject of data set [4] is HCC827 cells. As to the kind of experiment: Apoptosis assay (Annexin V-FITC/PI, flow cytometry). It is filed as cell-based, human. To be noted: HCC827, 10 nM, 48 h. From the text:
The percentage of apoptotic cells in total cells was designated as the apoptotic index.

The subject of a further data set is HeLa cells. As to the kind of experiment: Cell viability (CCK-8) in HeLa cells. The following applies: up to 1 μM, 96 h. It is filed as cell-based. The protocol: as §1, with “Cells (5 × 10^3 for 48 h or 1 × 10^3 for 96 h) were seeded in 96-well plates, allowed to attach overnight, and then incubated with various concentrations of compounds for 48 h or 96 h. The” for “The”

Another data set deals with T1, EGFR^L858R/T790M protein (Homo sapiens, UniProt P00533, L858R/T790M).
T1 construct: nor the EGFR^L858R/T790M protein in the H1975 cell line, up to 1 μM; host or cells: H1975
As to the kind of experiment: Immunoblots of EGFR in H1975 cells. It is filed as cell-based. To be noted: H1975 cell line, up to 1 μM, 24 h. The protocol: (§2) Cells at 70%–90% confluence were lysed in RIPA buffer with complete protease inhibitor cocktail (Roche Applied Science, Penzberg, Germany). Lysates were quantified, separated on SDS-PAGE gels, and transferred onto PVDF membranes, followed by the blockade with 5% milk in TBS+ 0.1% Tween-20 buffer for 1 h at room temperature. The following primary antibodies were used: anti-EGFR (1:50000, ABclonal Technology, Wuhan, China), anti-pEGFR (Tyr1068, […], Cell Signaling Technology, MA, United States), anti-AKT (1:10000, ABclonal Technology, Wuhan, China), anti-pAKT (1:10000, ABclonal Technology, Wuhan, China), and anti-β-actin (1:10000, ABclonal Technology, Wuhan, China). Protein bands were detected using Tanon High-signal ECL Western Blotting Substrate (Tanon Science and Technology Co., Ltd., Shanghai, China). The band density of the protein of interest was quantified using ImageJ.

Another data set deals with pEGFR and pAKT. As to the kind of experiment: Western blot of downstream signaling in HCC827 cells. It is filed as cell-based, human. How it is done:
as §2

In data set [5] the test system is HCC827 cells. As to the kind of experiment: Colony formation assay in HCC827 cells. It is filed as cell-based, human. To be noted: HCC827, 7 days. The protocol: as §1, with “Cells (5 × 10^3 for 48 h or 1 × 10^3 for 96 h) were seeded in 96-well plates, allowed to attach overnight, and then incubated with various concentrations of compounds for 48 h or 96 h. The” for “The”

The target of data set [6] is T2, EGFR^Del19 (Homo sapiens, UniProt P00533+Q96SW2, DEL746-750). As to the kind of experiment: Western blot of dissected HCC827 xenograft tumors. It is filed as in vivo, mouse. On the set-up: from tissue; host or cells: HCC827 xenograft tumours in female BALB/c nude mice. To be noted: 30 mg/kg intraperitoneal. How it is done:
as §2
Female BALB/c nude mice (5–6 weeks old) were purchased from Changzhou Cavens Laboratory Animal Co., Ltd. (China) and housed under pathogen-free conditions. HCC827 cells (5 × 10^6) suspended in 150 μL PBS were inoculated subcutaneously on the left flank of the mouse. When tumor volume reached an average of 70–80 mm^3, mice were randomly assigned to two groups (three mice in each group). […] The tumor volume was calculated as follows: tumor volume (mm^3) = (length × width^2)/2. […]

The target in a further data set is T3, EGFR^L858R (Homo sapiens, UniProt P00533, L858R).
T3 construct: expressed in transfected cells; host or cells: Ba/F3 (lentiviral pLVX-EGFR^L858R, puromycin selected)
As to the kind of experiment: Western blot of EGFR degradation in Ba/F3 cells stably expressing EGFR^L858R. It is filed as cell-based. To be noted: 24 h. The protocol:
HCC827 and H1975 cell lines were purchased from ATCC (United States) and cultured according to the manuals. Cells were grown in monolayers in appropriate media supplemented with 10% fetal bovine serum and 1% antibiotic/antimycotic solution. Ba/F3 cells stably expressing EGFR^L858R were obtained by infection with lentivirus produced by co-transfection of pLVX-EGFR^L858R, psPAX2, and pMD2.G into 293T cells, followed by selection with puromycin.
as §2

Another data set addresses EGFR^WT protein (Homo sapiens, UniProt P00533). As to the kind of experiment: Immunoblots of EGFR in H1299, H460 and HeLa cells. It is filed as cell-based. The following applies: H1299, H460 and HeLa cell lines, up to 1 μM, 24 h. The protocol:
as §2

Data set [7] concerns the target T2, EGFR^Del19. As to the kind of experiment: Western blot of EGFR degradation in HCC827 cells. It is filed as cell-based. Set-up: host or cells: HCC827. The following applies: for EGFR protein remaining under cycloheximide: HCC827, cycloheximide 100 μg/mL + 10 nM compound. How it is done:
HCC827 and H1975 cell lines were purchased from ATCC (United States) and cultured according to the manuals. Cells were grown in monolayers in appropriate media supplemented with 10% fetal bovine serum and 1% antibiotic/antimycotic solution.
as §2

The next data set concerns H1975 cells. As to the kind of experiment: Cell viability (CCK-8) in H1975 cells. To be noted: up to 1 μM, 96 h. It is filed as cell-based. The protocol:
as §1, with “Cells (5 × 10^3 for 48 h or 1 × 10^3 for 96 h) were seeded in 96-well plates, allowed to attach overnight, and then incubated with various concentrations of compounds for 48 h or 96 h. The” for “The”

The next data set relates to H1299 cells. As to the kind of experiment: Cell viability (CCK-8) in H1299 cells. To be noted: up to 1 μM, 96 h. It is filed as cell-based. The protocol: as §1, with “Cells (5 × 10^3 for 48 h or 1 × 10^3 for 96 h) were seeded in 96-well plates, allowed to attach overnight, and then incubated with various concentrations of compounds for 48 h or 96 h. The” for “The”
The test system of data set [8] is HCC827 human tumor xenograft. As to the kind of experiment: HCC827 xenograft tumor growth in BALB/c nude mice. It is filed as in vivo, mouse. How it is done:
Female BALB/c nude mice (5–6 weeks old) were purchased from Changzhou Cavens Laboratory Animal Co., Ltd. (China) and housed under pathogen-free conditions. HCC827 cells (5 × 10^6) suspended in 150 μL PBS were inoculated subcutaneously on the left flank of the mouse. When tumor volume reached an average of 70–80 mm^3, mice were randomly assigned to two groups (three mice in each group). […] The tumor volume was calculated as follows: tumor volume (mm^3) = (length × width^2)/2. All animal experiments were approved by the Ethics Committee for laboratory animals, The Nanjing Han & Zaenker Cancer Institute (File number: OGKQSPF/SQ-112).

A short description of data set [9]: Mouse weights in HCC827 xenograft study. It is filed as in vivo. The following applies: 30 mg/kg intraperitoneal, repeated and one-time dosing. The protocol:
Female BALB/c nude mice (5–6 weeks old) were purchased from Changzhou Cavens Laboratory Animal Co., Ltd. (China) and housed under pathogen-free conditions. HCC827 cells (5 × 10^6) suspended in 150 μL PBS were inoculated subcutaneously on the left flank of the mouse. When tumor volume reached an average of 70–80 mm^3, mice were randomly assigned to two groups (three mice in each group). Compound 14 (30 mg/kg, dissolved in 40% PEG 400 and 5% Tween-80) or vehicle (40% PEG 400 and 5% Tween-80) was administered to mice via intraperitoneal injection every 2 days for 21 days. The tumor volume was calculated as follows: tumor volume (mm^3) = (length × width^2)/2. All animal experiments were approved by the Ethics Committee for laboratory animals, The Nanjing Han & Zaenker Cancer Institute (File number: OGKQSPF/SQ-112).

Each structure is given as a SMILES string. “And” between values parts separate entries of the source, which are not always exact repeats. Equal values may be shown once. “Also recorded” adds a separate entry of the source. Read-outs that look alike come from different tables or passages of the source.

Regarding `C=CC(=O)N1CCC[C@H](n2c(Nc3ccccc3)nc3cnc(Nc4ccc(N5CCN(CCCCCCCC(=O)N[C@H](C(=O)N6C[C@H](O)C[C@H]6C(=O)N[C@@H](C)c6ccc(-c7scnc7C)cc6)C(C)(C)C)CC5)cc4)nc32)C1` [CP17], the 50% inhibitory concentration (IC50) in the data set on HCC827 cells [1] is 1.6 nM. Also, the DC50 in the data set with EGFR^Del19 [2] is 0.49 nM.
On to `COc1cc2c(Nc3ccc(F)c(Cl)c3)ncnc2cc1OCCCN1CCN(CCN2CCN(c3ccc4c(c3)C(=O)N(C3CCC(=O)NC3=O)C4=O)CC2)CC1` (stereo not drawn) [Compound 14], for which, in the data set on HCC827 cells [3] (HCC827, 10 nM for 8 h, washed, fresh media 24-96 h), the “Proliferation after compound removal” value was “almost completely stopped proliferating; also recorded: completely ceased proliferation”. The IC50 in the data set with HCC827 cells [3] (HCC827, 48 h, HCC827, 48 h incubation) is about 8.29 nM; in the data set with HCC827 cells [3] (HCC827, 96 h, HCC827, 96 h incubation) it was 4.91 nM. The “Proliferation of HCC827 cells versus control vehicle” value with HCC827 cells [3] (different concentrations) is reported as “markedly attenuated the proliferation”. Moreover, in the data set with HCC827 cells [4], the “Increase in the number of apoptotic cells” value was “at least a two-fold increase”. In addition, the Effect on viability entry with HeLa cells, in the data set with H1975 cells and in the data set on H1299 cells was “not affecting the viability; also recorded: did not affect the viability” throughout. The “Degradation of EGFR^L858R/T790M protein” value at EGFR^L858R/T790M protein is recorded as “neither compound degraded”. Also, in the data set with pEGFR and pAKT, the “Levels of pEGFR and pAKT” value is “markedly reduced; also recorded: more marked decreases”. For the same compound, the Colony formation entry with HCC827 cells [5] was “fewer and smaller colonies”. In addition, the “EGFR^Del19 protein in tumors in vivo” value on EGFR^Del19 [6] is recorded as “effectively degraded”. The DC50 on EGFR^L858R (Ba/F3 cells stably expressing EGFR^L858R) was 20.6 nM; at EGFR^Del19 [7] (HCC827 cells, 24 h treatment), 0.26 nM and 0.261 nM. Further, the “Degradation of EGFR^L858R compared with MS154” value on EGFR^L858R (Ba/F3 cells) is on record as “remarkable improvements”. Further, the “Degradation of EGFR^WT protein” value at EGFR^WT protein is on record as “no effect; also recorded: neither compound degraded; also recorded: No significant degradation”. For the same compound, the “EGFR degradation (%)” value at EGFR^Del19 [7] (10 nM, HCC827, 24 h, average of two independent experiments, NA = not active) was 66.3% ± 3.5% and 66.3 ± 3.5%. For the same compound, the “EGFR protein remaining under cycloheximide” value at EGFR^Del19 [7] (4 h) worked out at 34.5%; on EGFR^Del19 [7] (8 h), 12.5%. Also, at EGFR^Del19 [7] (HCC827 cells, 10 nM), the “Earliest time at which EGFR^Del19 degradation observed” value turned out to be 2 h. The Dmax at 0.01 µM at EGFR^Del19 [7] (HCC827 cells, 10 nM, after 24 h of incubation, read-out: Maximum degradation (Dmax) in time course) came out at 85%. The “Duration of sustained EGFR^Del19 degradation” value on EGFR^Del19 [7] (HCC827 cells, 10 nM, continuous incubation) was found to be 96 h. For the same compound, the “Duration of EGFR^Del19 reduction after compound removal” value on EGFR^Del19 [7] (HCC827 cells, 8 h incubation with 10 nM, then washout) is given as “over 72 h”. Also, the “Degradation of EGFR^Del19 compared with MS154” value on EGFR^Del19 [7] (HCC827 cells, 24 h) was “remarkable improvements”. Besides, the Dmax on EGFR^Del19 [7] (HCC827 cells, 24 h, dose-response) is 91.2%. In data set [8] (30 mg/kg intraperitoneal every 2 days for 21 days), this compound displayed a Mean tumor volume of 56.58 ± 10.91 mm^3. Also, the “Mean tumor volume inhibition” value in data set [8] (one-time intraperitoneal injection 30 mg/kg, 18 days after treatment, versus vehicle) was determined as 79%. Further, in data set [9], the “Signs of wasting (mouse weights)” value was “None of the mice showed signs of wasting”.
